target: Mycobacterium thermoresistible (Mtr) LpqY (Mycolicibacterium thermoresistibile, UniProt G7CES0); assay type: binding; conditions: single dose MST screen against LpqY
Sequence (G7CES0 29-471): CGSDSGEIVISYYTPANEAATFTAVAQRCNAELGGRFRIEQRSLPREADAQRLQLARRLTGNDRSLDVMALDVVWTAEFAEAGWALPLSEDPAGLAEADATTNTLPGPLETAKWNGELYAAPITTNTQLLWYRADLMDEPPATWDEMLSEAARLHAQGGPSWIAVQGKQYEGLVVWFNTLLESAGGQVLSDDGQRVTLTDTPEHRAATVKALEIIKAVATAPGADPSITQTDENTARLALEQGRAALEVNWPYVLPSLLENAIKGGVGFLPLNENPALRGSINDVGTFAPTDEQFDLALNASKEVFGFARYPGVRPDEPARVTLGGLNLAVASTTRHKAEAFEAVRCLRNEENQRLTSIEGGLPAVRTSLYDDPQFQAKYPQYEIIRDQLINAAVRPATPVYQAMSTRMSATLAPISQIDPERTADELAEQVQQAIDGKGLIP

Row | SMILES | Pathogen Box screen signal/noise ratio
1 | O=C(Nc1ccc(F)c(-c2nc3cc(-c4ccccc4)cnc3[nH]2)c1)N1CCCC1 [MMV688372] | 0.9
2 | CC(=O)N(CCN(C(=O)c1ccc(F)cc1)c1ccccc1)c1ccccc1 [MMV676064] | 0.35
3 | O=C(Nc1nc(-c2ccccn2)cs1)c1cncn1-c1ccccc1 [MMV676512] | 0.561
4 | O=C(CCC1CCCCC1)Nc1cccc(-c2nnc(-c3ccco3)o2)c1 [MMV676589] | 0.6
5 | COc1ccc(-c2cnc3ccc(N4CCCC4)nn23)cc1OC [MMV023985] | 2.0
6 | Cc1ccc(S(=O)(=O)Nc2ccc(CN3CCN(C(=O)c4cccc(C#N)c4)CC3)cc2)cc1 [MMV689028] | -0.5
7 | FC(F)(F)c1cc(NCCc2ccccc2)nc(-c2ccccn2)n1 [MMV659010] | 1.0
8 | CCC(Sc1nc2ccccc2o1)C(=O)Nc1nccs1 (stereo not drawn) [MMV676383] | 0.8
9 | O=C1COCc2ccc(Br)cc2N1Cc1ccc(C(F)(F)F)cc1 [MMV032995] | 0.9
10 | N=C(N)Nc1ccc(-c2ccc(-c3ccc(NC(=N)N)cc3Cl)o2)c(Cl)c1 [MMV688179] | 2.0
11 | CC(c1cc(Cl)cc(Cl)c1)N(C)c1ncc2c(N)nc(N)nc2n1 (stereo not drawn) [MMV689437] | 0.187
12 | Cc1ccc(S(=O)(=O)N2CCN(C(=O)c3cc(-c4ccccc4)[nH]n3)CC2)cc1 [MMV019742] | 0.286
13 | O=C(Nc1cccnc1)c1c(O)c2cccc3c2n(c1=O)CC3 [MMV676395] | 2.1
14 | Cc1nc(-c2ccccn2)nc(N2CCC(Cc3ccccc3)C2)c1Cl (stereo not drawn) [MMV659004] | 0.2
15 | CCC(Sc1nc2ccccc2o1)C(=O)Nc1nnc(C)s1 (stereo not drawn) [MMV611037] | 0.9
16 | NCCC(O)C(=O)N[C@@H]1C[C@H](N)[C@@H](OC2O[C@H](CN)[C@@H](O)[C@H](O)[C@H]2O)[C@H](O)C1OC1O[C@H](CO)[C@@H](O)[C@H](N)[C@H]1O (stereo partly drawn) [MMV687796] | 1.2
17 | CCN(CC)CCCCCCNc1cc(OC)cc2c(C)ccnc12 [MMV000063] | 2.2
18 | CC[C@@H]([C@H](C)O)n1ncn(-c2ccc(N3CCN(c4ccc(OC[C@@H]5CO[C@@](Cn6cncn6)(c6ccc(F)cc6F)C5)cc4)CC3)cc2)c1=O [MMV688774] | 3.4
19 | Cc1cc(OCC(=O)NCc2ccccc2)c2cc(Br)ccc2n1 [MMV687747] | 0.856
20 | CCc1c(C)nc(-n2nc(C)cc2NC(=O)c2ccccc2SC)[nH]c1=O [MMV676477] | 0.7
21 | COc1ccc(-c2nn(C(C)C)c3ncnc(N)c23)cc1OC [MMV675993] | 0.75
22 | Cc1cc(Nc2ccc(C(F)(F)F)cc2)n2ccnc2n1 [MMV011229] | 0.2
23 | O=C1N(Cc2cc3ccccc3s2)CC2CN(Cc3ccccc3)CCN12 (stereo not drawn) [MMV084603] | 1.3
24 | Cc1cnc(N2CCN[C@@H](Cc3ccccc3)C2)nc1Oc1ccc(-n2ccnc2)cc1 [MMV687765] | 2.2
25 | Cc1ccccc1C(=O)N1N=C(Nc2ccccc2)SC1(C)C [MMV688771] | 0.4
26 | COc1ccc(Cn2cnc3c(-c4ccco4)nc(Cl)nc32)cc1 [MMV687170] | 1.0

Row | SMILES | Pathogen Box screen signal/noise ratio
27 | NCC(=O)N1CCn2c(nc(-c3ccccc3)c2Nc2ccc3c(c2)OCO3)C1 [MMV011691] | 1.3
28 | CO[C@@H](C(=O)N1Cc2[nH]nc(NC(=O)c3ccc(N4CCN(C)CC4)cc3)c2C1)c1ccccc1 [MMV676600] | 0.6
29 | O=C1O[C@@H](COc2ccon2)CN1c1cc(F)c(C2=CCN(Cc3ccccc3)CC2)c(F)c1 [MMV687813] | 1.0
30 | CS(=O)(=O)Cc1nc2ccccc2oc1=O [MMV553002] | 3.2
31 | Cc1ccc2oc(-c3cc(NC(=O)Cc4ccccc4)ccc3Cl)nc2c1 [MMV676509] | 3.4
32 | Cc1nn(Cc2ccccc2)c(Cl)c1C(=O)NC1CCCCCC1 [MMV063404] | 2.2
33 | Cc1nn2c(O)c3c(nc2c1-c1ccc(F)cc1)CCCC3 [MMV099637] | 3.3
34 | COc1ccc(OC)c(NCc2ccc3nc(N)nc(N)c3c2Cl)c1 [MMV675968] | 5.0
35 | COc1ccc(Cl)cc1NC(=O)CN(C)C(=O)c1cnn(-c2ccccc2)n1 [MMV020710] | 1.8
36 | Cc1[nH]c2ccccc2c1C(c1cccs1)N1CCN(C)CC1 (stereo not drawn) [MMV688768] | 2.1
37 | COc1ccc(C2(C(=O)Nc3ccc(Br)cc3)CCCC2)cc1 [MMV200748] | 1.4
38 | Cc1ncc(-c2ccnc(Nc3ccc(S(C)(=O)=O)cc3)n2)n1C(C)C [MMV676604] | 4.2
39 | CN1CCN(S(=O)(=O)c2ccc(-c3ccc4c(Nc5ccc6nn[nH]c6c5)ccnc4c3)cc2)CC1 [MMV687246] | 2.8
40 | N=C(N)c1ccc(-c2cc(-c3ccccc3)on2)cc1 [MMV688514] | 1.1
41 | O=C(NC1CCCCC1)N1CCN(Cc2ccc3c(c2)OCO3)CC1 [MMV676444] | 1.3
42 | O=C(NC1CC1)c1ccc(N2CCC(Cc3ccccc3)CC2)nc1 [MMV024397] | 0.8
43 | CCc1nc2ccc(C(=O)NCc3ccc4c(c3)OCO4)cn2c1N(C)Cc1cccs1 [MMV407539] | 0.241
44 | O=C(NCc1ccco1)N1CCN(Cc2ccc(Cl)s2)CC1 [MMV688555] | 0.218
45 | c1cncc(NCc2ccc(-c3cc4ccncc4cc3OC3CCNCC3)s2)c1 [MMV023969] | 1.3
46 | C[C@@H]1[C@H](O)[C@@H](C)/C=C/C=C/C=C/C=C/C=C/C=C/C=C/[C@H](O[C@@H]2O[C@H](C)[C@@H](O)[C@H](N)[C@@H]2O)C[C@@H]2O[C@](O)(C[C@@H](O)C[C@@H](O)[C@H](O)CC[C@@H](O)C[C@@H](O)CC(=O)O[C@H]1C)C[C@H](O)[C@H]2C(=O)O [MMV689000] | 1.1
47 | O=C(Nc1ccc(C(F)(F)F)c(C(F)(F)F)c1)c1cc(Cl)ccc1O [MMV687807] | 0.5
48 | CCCNC(=O)N1CCC2(CC1)CC(=O)c1cc(C)ccc1O2 [MMV085230] | 1.0
49 | c1coc(CNc2nc(N3CCCCC3)nc3ccccc23)c1 [MMV676401] | 1.9
50 | O=C(Nc1ccc(N2CCNCC2)nc1)c1oc(-c2ccccc2)nc1C(F)(F)F [MMV024937] | 2.9
51 | NS(=O)(=O)c1cccc(-c2ccc3ncc(N4CCOCC4)nc3c2)c1 [MMV023860] | 1.6
52 | COc1cccc2c(C)nc(N=C(N)N)nc12 [MMV000907] | 1.1

Row | SMILES | Pathogen Box screen signal/noise ratio
53 | N#Cc1ccc(-c2cnc(N)c(-c3ccc(C(N)=O)cc3)n2)cc1 [MMV085499] | 2.4
54 | CC(C)(C)C(=O)N(CCCCCCN1C[C@H](O)[C@@H](O)[C@H](O)[C@H]1CO)C1CCCCCC1 [MMV688543] | 1.3
55 | O=C(NC1CC1)c1ccc(N2CCOc3ccc(Cl)cc32)s1 [MMV020537] | 1.9
56 | O=C(Nc1cnc2ccccc2c1)c1cccc(-n2cnnn2)c1 [MMV084864] | 1.5
57 | CCc1nc2ccccc2n1CC(O)COc1cc(C)ccc1Cl (stereo not drawn) [MMV676449] | 1.2
58 | COc1cc(Br)cc2cc(C(=O)Nc3cccc(C(F)(F)F)c3)c(=O)oc12 [MMV688891] | 0.646
59 | CC1=Nc2ccc(Cl)cc2C(O)(c2ccc(C)cc2)N1CCN1CCCCC1 (stereo not drawn) [MMV688279] | 0.8
60 | COc1ccc(-c2nc(-c3cccc(NC(=O)Cc4ccc(F)cc4)c3)no2)cc1OC [MMV676571] | 3.5
61 | CC(=O)NC[C@@H]1CN(c2ccc(N3CCOCC3)c(F)c2)C(=O)O1 [MMV687803] | 2.0
62 | Nc1nccc2ccc(-c3ccc4nccn4c3)cc12 [MMV023233] | 0.9
63 | c1ccc2c(c1)CN(CC1CC1)CC1(CCN(Cc3c[nH]c4cnccc34)CC1)O2 [MMV023183] | 2.8
64 | COC(=O)c1cccc2oc(-c3cccc(OC)c3NC(=O)c3cc(-c4ccccc4)on3)nc12 [MMV676186] | 0.1
65 | Nc1ccc(C(=O)Nc2ccc(-c3nc4ccccc4o3)cc2)cc1 [MMV007920] | 0.9
66 | CS(=O)(=O)N1CCC(CCn2nc(Cc3cccc4ccccc34)c3c(N)ncnc32)CC1 [MMV688470] | 0.75
67 | CN1CCC(c2cc(-c3ccncc3)c(-c3ccc(F)cc3)[nH]2)CC1 [MMV688703] | 1.2
68 | CC(C)(C)c1cc(C(=O)N2CCN(c3nccnc3C#N)CC2)n(Cc2ccccc2)n1 [MMV023949] | 0.7
69 | COC(=O)c1c(NC(=O)c2c(F)c(F)c(F)c(F)c2F)sc2c1CCCCC2 [MMV461553] | 2.6
70 | Clc1cccc(C(c2ccc(CN3CCNCC3)cc2)n2ccnc2)c1 (stereo not drawn) [MMV663250] | 0.278
71 | CC(C)(CN)c1nc(-c2ccc(Cl)c(O)c2)c(-c2ccnc(N)n2)[nH]1 [MMV030734] | 3.5
72 | Cc1ccc(S(=O)(=O)n2cc(-c3ccnc(N)c3)c3cc(Br)cnc32)cc1 [MMV024114] | 1.1
73 | CC(C)(C)n1nc(-c2ccccc2)c2c(N)ncnc21 [MMV688548] | 1.0
74 | COc1cc2ncnc(NC3CCN(Cc4ccccc4)CC3)c2cc1OC [MMV006741] | 4.3
75 | C[C@H]1COc2c(N3CCN(C)CC3)c(F)cc3c(=O)c(C(=O)O)cn1c23 [MMV687798] | 0.9
76 | Cc1nc2ccccn2c1C(=O)NCc1ccc(Cl)cc1 [MMV012074] | 1.0
77 | COc1ccc2nccc(NC(=O)C3CCN(CCc4ccc(Cl)cc4)CC3)c2n1 [MMV688844] | 0.7
78 | Cc1nn(C(=O)Nc2cccc(C(F)(F)F)c2)c(C)c1Sc1ncccn1 [MMV688552] | 0.8
